# From PubChem BioAssay AID493146 (Sanford-Burnham Center for Chemical Genomics, 2011)
# Activity calls are given as the source filed them. No rule for the calls is given here.
# Biological target: intestinal alkaline phosphatase (Alpi), Mus musculus
# Assay: activators of mouse IAP enzyme, SAR follow-up, biochemical, luminescence (AID 493146)
# Details: purified mouse IAP, luminescent substrate, activation
row,EC50,SMILES
1,> 100 µM (inactive),O=C(C1CCN(S(=O)(=O)c2ccc3[nH]c(=O)oc3c2)CC1)N1CC=C(c2ccccc2)CC1
2,> 100 µM (inactive),O=C(CCN1C(=O)/C(=C\c2ccco2)SC1=S)Nc1ccc(C(=O)O)c(O)c1
3,> 100 µM (inactive),NS(=O)(=O)c1ccc(-c2ccc(/C=C3\SC(=S)N(C4CCS(=O)(=O)C4)C3=O)o2)cc1 (stereo unspecified)
4,> 100 µM (inactive),CCOc1ccccc1CNC(=O)CCNS(=O)(=O)c1ccc2[nH]c(=O)oc2c1
5,> 100 µM (inactive),CC(C)c1ccc(NC(=O)CCNS(=O)(=O)c2ccc3[nH]c(=O)oc3c2)cc1
6,> 100 µM (inactive),CCOC(=O)N1CCN(S(=O)(=O)c2ccc3[nH]c(=O)oc3c2)CC1
7,> 100 µM (inactive),CC(C(=O)NCCc1ccc(O)c(O)c1)N1C(=O)/C(=C\c2ccco2)SC1=S (stereo unspecified)
8,> 100 µM (inactive),CCc1ccc(NC(=O)CN(C)S(=O)(=O)c2ccc3[nH]c(=O)oc3c2)cc1
9,> 100 µM (inactive),O=C(CN1C(=O)/C(=C/c2ccco2)SC1=S)Nc1ccc(C(=O)O)c(O)c1
10,> 100 µM (inactive),COc1ccc(NC(=O)C(CC(C)C)NS(=O)(=O)c2ccc3[nH]c(=O)oc3c2)cc1 (stereo unspecified)
11,> 100 µM (inactive),COc1ccc(OC)c(NC(=O)CCNS(=O)(=O)c2ccc3[nH]c(=O)oc3c2)c1
12,> 100 µM (inactive),Cc1ccc(NC(=O)CCNS(=O)(=O)c2ccc3[nH]c(=O)oc3c2)c(C)c1
13,> 100 µM (inactive),O=C(CCCN1C(=O)/C(=C\c2ccco2)SC1=S)Nc1ccc(O)cc1C(=O)O
14,> 100 µM (inactive),Cc1ccc(NC(=O)CCNS(=O)(=O)c2ccc3[nH]c(=O)oc3c2)cc1N(C)C
15,> 100 µM (inactive),CC(C(=O)Nc1ccc(C(=O)O)cc1)N1C(=O)/C(=C\c2ccco2)SC1=S (stereo unspecified)
16,> 100 µM (inactive),O=C(CCN1C(=O)/C(=C/c2ccco2)SC1=S)Nc1ccc(C(=O)O)c(O)c1
17,> 100 µM (inactive),COc1ccc(NC(=O)CCNS(=O)(=O)c2ccc3[nH]c(=O)oc3c2)cc1Cl
18,> 100 µM (inactive),COc1ccccc1NC(=O)CCNS(=O)(=O)c1ccc2[nH]c(=O)oc2c1

row,EC50,SMILES
1,> 100 µM (inactive),CCOc1ccc2nc(NC(=O)CN(C)S(=O)(=O)c3ccc4[nH]c(=O)oc4c3)sc2c1
2,> 100 µM (inactive),O=C(CN1C(=O)/C(=C/c2ccco2)SC1=S)Nc1ccc(O)c(C(=O)O)c1
3,> 100 µM (inactive),COc1cccc(NC(=O)CN(C)S(=O)(=O)c2ccc3[nH]c(=O)oc3c2)c1
4,> 100 µM (inactive),CC(C(=O)Nc1ccc(C(=O)O)c(O)c1)N1C(=O)/C(=C\c2ccco2)SC1=S (stereo unspecified)
5,> 100 µM (inactive),O=C(CN1C(=O)/C(=C\c2ccco2)SC1=S)Nc1cccc(C(=O)O)c1
6,> 100 µM (inactive),N#Cc1cccc(NC(=O)CCNS(=O)(=O)c2ccc3[nH]c(=O)oc3c2)c1
7,> 100 µM (inactive),CSc1cccc(NC(=O)CCNS(=O)(=O)c2ccc3[nH]c(=O)oc3c2)c1
8,> 100 µM (inactive),CC(C(=O)Nc1cccc(C(=O)O)c1)N1C(=O)/C(=C\c2ccco2)SC1=S (stereo unspecified)
9,> 100 µM (inactive),O=C(CN1C(=O)/C(=C/c2ccco2)SC1=S)Nc1cccc(C(=O)O)c1
10,> 100 µM (inactive),Cc1ccc(NC(=O)CCNS(=O)(=O)c2ccc3[nH]c(=O)oc3c2)cc1
11,> 100 µM (inactive),O=C(c1ccco1)N1CCN(S(=O)(=O)c2ccc3[nH]c(=O)oc3c2)CC1
12,> 100 µM (inactive),CCOc1ccccc1NC(=O)CCNS(=O)(=O)c1ccc2[nH]c(=O)oc2c1
13,> 100 µM (inactive),O=C(CN1C(=O)/C(=C/c2ccco2)SC1=S)Nc1ccc(C(=O)O)cc1
14,> 100 µM (inactive),O=C(CN1C(=O)/C(=C\c2ccco2)SC1=S)Nc1ccc(O)cc1C(=O)O
15,> 100 µM (inactive),Cc1ccc(C)c(NC(=O)CCNS(=O)(=O)c2ccc3[nH]c(=O)oc3c2)c1
16,> 100 µM (inactive),O=C(CCNS(=O)(=O)c1ccc2[nH]c(=O)oc2c1)Nc1cccc(-c2ccno2)c1
17,> 100 µM (inactive),COc1ccc(N2CCN(C(=O)CN3C(=O)/C(=C\c4ccco4)SC3=S)CC2)cc1

# The next lines start with the molecule.
row,SMILES,EC50
1,COc1cc(C(=O)NN=Cc2ccccn2)cc(OC)c1OC,> 100 µM (inactive)
2,O=C(CN1C(=O)/C(=C/c2ccco2)SC1=S)NCCc1ccc(O)cc1,> 100 µM (inactive)
3,COc1cccc(/C=N/NC(=O)c2cc(O)c(O)c(O)c2)c1,> 100 µM (inactive)
4,CN(C(=O)CN1C(=O)/C(=C\c2ccco2)SC1=S)C1CCS(=O)(=O)C1 (stereo unspecified),> 100 µM (inactive)
5,O=C(CN1C(=O)/C(=C/c2ccco2)SC1=S)NC1C=CS(=O)(=O)C1 (stereo unspecified),> 100 µM (inactive)
6,COc1ccc(NC(=O)CSc2sc3c(O)cc(=O)[nH]c3c2C#N)c(OC)c1,> 100 µM (inactive)
7,COc1ccc(CNC(=O)CSc2sc3c(O)cc(=O)[nH]c3c2C#N)cc1OC,> 100 µM (inactive)
8,Cc1csc(NC(=O)CSc2sc3c(O)cc(=O)[nH]c3c2C#N)n1,> 100 µM (inactive)
9,COc1cc(C(=O)NNC(=O)c2n[nH]c3ccccc23)cc(OC)c1OC,> 100 µM (inactive)
10,Cc1cc(NC(=O)CSc2sc3c(O)cc(=O)[nH]c3c2C#N)ccc1Br,> 100 µM (inactive)
11,O=C(N/N=C/c1ccsc1)c1cc(O)c(O)c(O)c1,> 100 µM (inactive)
12,O=C(CN1C(=O)/C(=C/c2ccco2)SC1=S)N[C@@H]1CSC[C@@H]1O,> 100 µM (inactive)
13,O=[N+]([O-])c1ccc(NC(=S)NCCC(c2ccccc2)c2ccccc2)cc1,> 100 µM (inactive)
14,CCOc1cccc(NC(=O)CSc2sc3c(O)cc(=O)[nH]c3c2C#N)c1,> 100 µM (inactive)
15,N#Cc1c(SCC(=O)Nc2ccc(Cl)cc2Cl)sc2c(O)cc(=O)[nH]c12,> 100 µM (inactive)
16,CC(C(=O)N(C)C1CCS(=O)(=O)C1)N1C(=O)/C(=C/c2ccco2)SC1=S (stereo unspecified),> 100 µM (inactive)
17,FC(F)(F)c1cccc(NC(=S)NCCC(c2ccccc2)c2ccccc2)c1,82.3 µM
18,CN1CCC(=NNC(=O)c2cc(O)c(O)c(O)c2)CC1,> 100 µM (inactive)
19,O=C1/C(=C/c2ccco2)SC(=S)N1C1CCS(=O)(=O)C1 (stereo unspecified),> 100 µM (inactive)

row,SMILES,EC50
1,O=C(CN1C(=O)/C(=C/c2ccco2)SC1=S)Nc1ccc2nccnc2c1,> 100 µM (inactive)
2,COc1ccc(OC)c(NC(=O)CSc2sc3c(O)cc(=O)[nH]c3c2C#N)c1,> 100 µM (inactive)
3,CCOC(=O)NC(=O)CSc1sc2c(O)cc(=O)[nH]c2c1C#N,> 100 µM (inactive)
4,N#Cc1c(SCC(=O)Nc2cccc(F)c2)sc2c(O)cc(=O)[nH]c12,> 100 µM (inactive)
5,O=C(CCCN1C(=O)/C(=C/c2ccco2)SC1=S)Nc1ccccc1,> 100 µM (inactive)
6,CCSc1nnc(NC(=O)CSc2sc3c(O)cc(=O)[nH]c3c2C#N)s1,> 100 µM (inactive)
7,COc1ccc(Cl)cc1NC(=O)CSc1sc2c(O)cc(=O)[nH]c2c1C#N,> 100 µM (inactive)
8,O=C(N/N=C/C1CC=CCC1)c1cc(O)c(O)c(O)c1 (stereo unspecified),> 100 µM (inactive)
9,O=C(N/N=C/c1ccc(F)cc1)c1cc(O)c(O)c(O)c1,> 100 µM (inactive)
10,COc1cc(C(=O)NNC(=S)NC(=O)c2ccccc2C)cc(OC)c1OC,> 100 µM (inactive)
11,N#Cc1c(SCC(=O)Nc2ccc(C(F)(F)F)cc2)sc2c(O)cc(=O)[nH]c12,> 100 µM (inactive)
12,S=C(NCCC(c1ccccc1)c1ccccc1)Nc1ccc(Cl)cc1Cl,7.1 µM
13,O=C(NN=Cc1cccnc1)c1cc(O)c(O)c(O)c1,> 100 µM (inactive)
14,N#Cc1c(SCC(=O)NCc2ccc3c(c2)OCO3)sc2c(O)cc(=O)[nH]c12,> 100 µM (inactive)
15,COc1cc(C(=O)NNC(=O)C2CC2)cc(OC)c1OC,> 100 µM (inactive)
16,N#Cc1c(SCC(=O)Nc2nncs2)sc2c(O)cc(=O)[nH]c12,> 100 µM (inactive)
17,CCN(CC)C(=O)CSc1sc2c(O)cc(=O)[nH]c2c1C#N,> 100 µM (inactive)
18,Cc1ccc(/C=N/NC(=O)c2cc(O)c(O)c(O)c2)cc1,> 100 µM (inactive)
19,CC(C(=O)NCCc1ccc(O)cc1)N1C(=O)/C(=C/c2ccco2)SC1=S (stereo unspecified),> 100 µM (inactive)

row,SMILES,EC50
1,COC(=O)c1ccc(C)c(NC(=O)CSc2sc3c(O)cc(=O)[nH]c3c2C#N)c1,> 100 µM (inactive)
2,O=S(=O)(Nc1ncccn1)c1ccc(NC(=S)NCCC(c2ccccc2)c2ccccc2)cc1,> 100 µM (inactive)
3,N#Cc1c(SCC(=O)Nc2nc3ccc(Br)cc3s2)sc2c(O)cc(=O)[nH]c12,> 100 µM (inactive)
4,CCCSc1nnc(NC(=O)CSc2sc3c(O)cc(=O)[nH]c3c2C#N)s1,> 100 µM (inactive)
5,Cc1ccc(NC(=O)CSc2sc3c(O)cc(=O)[nH]c3c2C#N)c(F)c1,> 100 µM (inactive)
6,CC(C)N1CCC(=NNC(=O)c2cc(O)c(O)c(O)c2)CC1,> 100 µM (inactive)
7,O=C(N/N=C/c1ccccc1F)c1cc(O)c(O)c(O)c1,> 100 µM (inactive)
8,Cc1cc(=O)oc2cc(NC(=S)NCCC(c3ccccc3)c3ccccc3)ccc12,> 100 µM (inactive)
9,O=C(N/N=C/c1ccco1)c1cc(O)c(O)c(O)c1,> 100 µM (inactive)
10,CCc1nnc(NC(=O)CSc2sc3c(O)cc(=O)[nH]c3c2C#N)s1,> 100 µM (inactive)
11,CCOC(=O)N1CCC(NC(=O)CSc2sc3c(O)cc(=O)[nH]c3c2C#N)CC1,> 100 µM (inactive)
12,O=C(O)CC(C(=O)O)N1C(=O)/C(=C/c2ccc(-c3nc4ccccc4s3)o2)SC1=S (stereo unspecified),> 100 µM (inactive)
13,C/C(=N\NC(=O)c1cc(O)c(O)c(O)c1)c1ccncc1,> 100 µM (inactive)
14,N#Cc1cccc(NC(=O)CSc2sc3c(O)cc(=O)[nH]c3c2C#N)c1,> 100 µM (inactive)
15,N#Cc1c(SCC(=O)Nc2nccs2)sc2c(O)cc(=O)[nH]c12,> 100 µM (inactive)
16,COc1ccccc1NC(=O)CSc1sc2c(O)cc(=O)[nH]c2c1C#N,> 100 µM (inactive)
17,COc1cc(C(=O)NNc2nc3cc4c(cc3s2)OCO4)cc(OC)c1OC,> 100 µM (inactive)
18,N#Cc1c(SCC(=O)Nc2ccccc2C(F)(F)F)sc2c(O)cc(=O)[nH]c12,> 100 µM (inactive)
